Key:
giant foxtail = experiment: Test A postemergence; assay type: in vivo, Setaria faberii; settings: 0 to 100 scale where 0 is no effect and 100 is complete control
Summary of the method: (§1)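 Compounds in non-phytotoxic solvent with surfactant applied as soil spray preemergence, or postemergence to plants 2-10 cm at one- to two-leaf stage, in loam/sand. After approximately 10 days in greenhouse, injury rated visually versus untreated controls, 0 (no effect) to 100 (complete control).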

galium = experiment: Test C postemergence; assay type: in vivo, Galium aparine
Summary of the method: (§2)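 Seeds were sown in loam–sand blend and sprayed preemergence, while plants at 1- to 4-leaf stage (2–18 cm) in peat-based medium received postemergence sprays; test chemicals were formulated in a non-phytotoxic solvent with surfactant. After 13–15 days in a greenhouse, injury was rated visually against controls, 0 (no effect) to 100 (complete control).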

kochia = experiment: Test C postemergence; assay type: in vivo, Kochia scoparia
Summary of the method: as §2

ragweed = experiment: Test C preemergence; assay type: in vivo, Ambrosia elatior; settings: preemergence
Summary of the method: as §2

corn = experiment: Test A postemergence; assay type: in vivo, Zea mays; settings: 0 to 100 scale where 0 is no effect and 100 is complete control
Summary of the method: as §1

velvetleaf = experiment: Test A postemergence; assay type: in vivo, Abutilon theophrasti; settings: 0 to 100 scale where 0 is no effect and 100 is complete control
Summary of the method: as §1

pigweed [1] = experiment: Test C preemergence; assay type: in vivo, Amaranthus retroflexus; settings: preemergence
Summary of the method: as §2

yellow nutsedge = experiment: Test C preemergence; assay type: in vivo, Cyperus esculentus; settings: preemergence
Summary of the method: as §2

lambsquarters [2] = experiment: Test C postemergence; assay type: in vivo, Chenopodium album
Summary of the method: as §2

wheat = experiment: Test A preemergence; assay type: in vivo, Triticum aestivum
Summary of the method: as §1

pigweed [3] = experiment: Test A preemergence; assay type: in vivo, Amaranthus retroflexus
Summary of the method: as §1

lambsquarters [4] = experiment: Test C preemergence; assay type: in vivo, Chenopodium album; settings: preemergence
Summary of the method: as §2

large (Lg) crabgrass = experiment: Test A postemergence; assay type: in vivo, Digitaria sanguinalis; settings: 0 to 100 scale where 0 is no effect and 100 is complete control
Summary of the method: as §1

morningglory = experiment: Test C postemergence; assay type: in vivo, Ipomoea coccinea
Summary of the method: as §2

waterhemp = experiment: Test C preemergence; assay type: in vivo, Amaranthus rudis; settings: preemergence
Summary of the method: as §2

[5] = 16 g ai/ha, postemergence, 0 is no effect, 100 is complete control
[6] = 31 g ai/ha, postemergence, visual rating, scale 0 to 100 (0 no effect, 100 complete control), 13 to 15 days
[7] = 125 g ai/ha, postemergence, visual rating, scale 0 to 100 (0 no effect, 100 complete control)
[8] = Postemergence, 62 g ai/ha, scale 0 to 100 (0 no effect, 100 complete control)
[9] = 16 g ai/ha, scale 0 to 100 (0 no effect, 100 complete control)
[10] = 62 g ai/ha, scale 0 (no effect) to 100 (complete control)
[11] = 125 g ai/ha, scale 0 (no effect) to 100 (complete control)
[12] = 500 g ai/ha, 0 to 100 scale where 0 is no effect and 100 is complete control

FC(F)(F)c1cnn(-c2c(Cl)cccc2Oc2ncc(Cl)cn2)c1 [Compound 167]
Foxtail, Giant plant response rating (giant foxtail; 125 g ai/ha): 90 | Plant response rating, Foxtail, Giant (giant foxtail; 500 g ai/ha): 90 | Plant response rating (0 to 100), Galium (galium; [5]): 70 | Galium plant response rating (galium; [6]): 70 | Plant response rating, Galium (galium; [7]): 90 | Plant response rating, Galium (galium; [8]): 70 | Plant response rating (0 to 100), Kochia (kochia; [5]): 90 | Kochia plant response rating (kochia; [6]): 90 | Plant response rating, Kochia (kochia; [7]): 95 | Plant response rating, Kochia (kochia; [8]): 90 | Ragweed plant response rating (ragweed; [9]): 15 | Ragweed plant response rating (ragweed; [10]): 15 | Ragweed plant response rating (ragweed; [11]): 20 | Corn plant response rating (corn; 125 g ai/ha): 40 | Plant response rating, Corn (corn; 500 g ai/ha): 50 | Velvetleaf plant response rating (velvetleaf; 125 g ai/ha): 100 | Plant response rating, Velvetleaf (velvetleaf; 500 g ai/ha): 100 | Pigweed plant response rating (pigweed [1]; [9]): 100 | Pigweed plant response rating (pigweed [1]; [10]): 100 | Pigweed plant response rating (pigweed [1]; [11]): 100 | Nutsedge, Yellow plant response rating (yellow nutsedge; [9]): 0 | Nutsedge, Yellow plant response rating (yellow nutsedge; [10]): 10 | Nutsedge, Yellow plant response rating (yellow nutsedge; [11]): 60 | Plant response rating (0 to 100), Lambsquarters (lambsquarters [2]; [5]): 80 | Lambsquarters plant response rating (lambsquarters [2]; [6]): 90 | Plant response rating, Lambsquarters (lambsquarters [2]; [7]): 100 | Plant response rating, Lambsquarters (lambsquarters [2]; [8]): 98 | Wheat plant response rating (0 to 100 scale) (wheat; 125 g ai/ha): 0 | Wheat plant response rating (wheat; [12]): 50 | Pigweed plant response rating (0 to 100 scale) (pigweed [3]; 125 g ai/ha): 100 | Pigweed plant response rating (pigweed [3]; [12]): 100 | Lambsquarters plant response rating (lambsquarters [4]; [9]): 75 | Lambsquarters plant response rating (lambsquarters [4]; [10]): 100 | Lambsquarters plant response rating (lambsquarters [4]; [11]): 100 | Crabgrass, Large plant response rating (large (Lg) crabgrass; 125 g ai/ha): 80 | Plant response rating, Crabgrass, Large (large (Lg) crabgrass; 500 g ai/ha): 90 | Plant response rating (0 to 100), Morningglory (morningglory; [5]): 80 | Morningglory plant response rating (morningglory; [6]): 60 | Plant response rating, Morningglory (morningglory; [7]): 90 | Plant response rating, Morningglory (morningglory; [8]): 98 | Waterhemp plant response rating (waterhemp; [9]): 100 | Waterhemp plant response rating (waterhemp; [10]): 100 | Waterhemp plant response rating (waterhemp; [11]): 100
